The target of the test is T1, Vif/EloB/C/CBFβ (UniProt P69723+Q15369).
T1 construct: Vif in the context of the Vif/EloB/C/CBFβ is full-length Vif (amino acids 1-192); co-expressing EloB1-118 and EloC17-112 from MCS1 and MCS2, respectively, from a pETDuet-1 vector (pEloBC); made in house; host or cells: E. coli BL21(DE3)
As to the kind of experiment: Fluorescence anisotropy of 5-FAM Cul5 peptides with Vif/EloB/C/CBFβ. The class given is binding, HIV-1 Vif; human EloB/C/CBFβ. The text has this: The dissociation constant (KD) for each interaction is provided.

Residues, ends and D or L forms follow the SMILES beside them. *: point of attachment. 5FAM = O=C1OC2(c3ccc(O)cc3Oc3cc(O)ccc32)c2ccc(C(=O)*)cc21; Ahx = NCCCCCC(=O)O

By Kd is commonly meant the concentration at which binding is half-saturated. Lower therefore signals a tighter complex.

In turn, `CC[C@H](C)[C@H](NC(=O)[C@H](CCCCN)NC(=O)[C@H](C)NC(=O)[C@@H]1CCCN1C(=O)CNC(=O)[C@H](CCCCN)NC(=O)[C@H](CC(=O)O)NC(=O)[C@H](CC(=O)O)NC(=O)[C@H](Cc1c[nH]c2ccccc12)NC(=O)[C@H](CC(C)C)NC(=O)[C@H](CS)NC(=O)[C@@H](NC(=O)[C@H](C)NC(=O)[C@H](Cc1c[nH]cn1)NC(=O)[C@@H](NC(=O)[C@H](CC(=O)O)NC(=O)[C@H](CO)NC(=O)[C@H](Cc1ccccc1)NC(=O)[C@H](CC(C)C)NC(=O)CCCCCNC(=O)c1ccc2c(c1)C(=O)OC21c2ccc(O)cc2Oc2cc(O)ccc21)C(C)C)C(C)C)C(=O)N[C@@H](Cc1c[nH]cn1)C(=O)N[C@@H](CCC(N)=O)C(=O)N[C@@H](C)C(=O)N[C@@H](CC(C)C)C(=O)O` [Cul5(43-65)] gave a Kd of 4.7 µM.
Consider `CC(C)C[C@H](NC(=O)CCCCCNC(=O)c1ccc2c(c1)C(=O)OC21c2ccc(O)cc2Oc2cc(O)ccc21)C(=O)N[C@@H](CCCNC(=N)N)C(=O)N[C@@H](CCC(N)=O)C(=O)N[C@@H](CCC(=O)O)C(=O)N[C@@H](CO)C(=O)N[C@H](C(=O)N[C@H](C(=O)N[C@@H](CCCCN)C(=O)N[C@@H](CCC(N)=O)C(=O)N[C@@H](CCC(N)=O)C(=O)N[C@@H](Cc1c[nH]c2ccccc12)C(=O)O)[C@@H](C)O)C(C)C` [Cul5(30-40)] ({5FAM-Ahx}-LRQESVTKQQW-OH), for which the affinity, expressed as Kd, was 16 µM.
Take `CC(C)C[C@H](NC(=O)CCCCCNC(=O)c1ccc2c(c1)C(=O)OC21c2ccc(O)cc2Oc2cc(O)ccc21)C(=O)N[C@@H](Cc1ccccc1)C(=O)N[C@@H](CO)C(=O)N[C@@H](CC(=O)O)C(=O)N[C@H](C(=O)N[C@@H](Cc1c[nH]cn1)C(=O)N[C@@H](C)C(=O)N[C@H](C(=O)N[C@@H](CS)C(=O)N[C@@H](CC(C)C)C(=O)N[C@@H](Cc1c[nH]c2ccccc12)C(=O)N[C@@H](CC(=O)O)C(=O)O)C(C)C)C(C)C` [Cul5(43-54)]: the Kd came to 2.5 µM.
In turn, `CC(C)C[C@H](NC(=O)[C@H](CS)NC(=O)[C@@H](NC(=O)[C@H](C)NC(=O)[C@H](Cc1c[nH]cn1)NC(=O)[C@@H](NC(=O)[C@H](CC(=O)O)NC(=O)[C@H](CO)NC(=O)[C@H](Cc1ccccc1)NC(=O)[C@H](CC(C)C)NC(=O)[C@H](CC(=O)O)NC(=O)[C@H](Cc1ccccc1)NC(=O)[C@H](Cc1c[nH]c2ccccc12)NC(=O)[C@H](CCC(N)=O)NC(=O)[C@H](CCC(N)=O)NC(=O)[C@H](CCCCN)NC(=O)CCCCCNC(=O)c1ccc2c(c1)C(=O)OC21c2ccc(O)cc2Oc2cc(O)ccc21)C(C)C)C(C)C)C(=O)N[C@@H](Cc1c[nH]c2ccccc12)C(=O)O` [Cul5(37-53)] ({5FAM-Ahx}-KQQWFDLFSDVHAVCLW-OH) registered a Kd of 1.2 µM.
